Consider 17 compounds from US20260092061A1, “COMPOUNDS FOR TARGETED PROTEIN DEGRADATION” (Amphista Therapeutics Limited, priority 2022, published 2026).

Where two headings read alike, the source gives them in different places. A value given as a limit tells only on which side of the number the result lay.

This assay concerns the target T1, BRD9 (Homo sapiens, UniProt Q9H8M2).
T1 sequence (Q9H8M2 1-597): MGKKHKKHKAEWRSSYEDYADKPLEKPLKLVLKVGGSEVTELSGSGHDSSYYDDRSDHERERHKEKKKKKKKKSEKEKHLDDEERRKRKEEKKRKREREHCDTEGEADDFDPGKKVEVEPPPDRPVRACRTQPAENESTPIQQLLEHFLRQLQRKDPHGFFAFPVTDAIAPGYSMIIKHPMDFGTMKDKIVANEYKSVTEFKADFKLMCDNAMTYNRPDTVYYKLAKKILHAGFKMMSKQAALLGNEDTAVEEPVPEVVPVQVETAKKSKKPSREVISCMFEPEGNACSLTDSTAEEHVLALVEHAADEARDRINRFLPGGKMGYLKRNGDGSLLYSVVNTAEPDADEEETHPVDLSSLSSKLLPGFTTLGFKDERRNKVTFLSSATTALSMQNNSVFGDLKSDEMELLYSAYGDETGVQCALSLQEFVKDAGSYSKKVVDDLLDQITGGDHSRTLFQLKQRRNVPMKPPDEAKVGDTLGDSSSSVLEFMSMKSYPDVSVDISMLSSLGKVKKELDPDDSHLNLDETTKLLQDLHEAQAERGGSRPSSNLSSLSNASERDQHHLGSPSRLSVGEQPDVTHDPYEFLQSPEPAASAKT
The experiment in a line: Degradation of BRD9 (IF), immunofluorescence in MV4-11 cells, 24 hours (Assay Protocol 2). The class given is cell-based. More on the design: A suspension of MV4-11 cells (ATCC CRL-9591) was prepared; host or cells: MV4-11. The following applies: BRD9 degradation. In short, it runs like this:
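MV4-11 cells treated with compound 24 h at 37° C., then fixed, permeabilised and immunostained for BRD9 (anti-BRD9 E4Q3F, Alexa 647 secondary, Hoechst counterstain). High-content imaging quantified nuclear BRD9 signal; % BRD9 remaining normalised to DMSO and 100 nM CFT-8634 controls.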

Setting [1] is: Assay protocol 2, read-out: DC50.
Setting [2] is: MV4-11, Assay protocol 2, read-out: Dmax.
Setting [3] is: MV4-11, Table 4, determined according to Assay Protocol 2, read-out: Dmax^2.
The mark [4] stands for this setting: Table 4, determined according to Assay Protocol 2, read-out: DC50^2.

For `CC[C@@H]1c2cccc(CN3CCN(Cc4c(OC)cc(-c5cn(C)c(=O)c(C)c5C)cc4OC)C4(CC4)C3)c2CCN1C(=O)/C(C#N)=C/C(C)(C)C` (single isomer, unassigned) [Compound C91, (E/Z)-2-(5-((4-(2,6-dimethoxy-4-(1,4,5-trimethyl-6-oxo-1,6-dihydropyridin-3-yl)benzyl)-4,7-diazaspiro[2.5]octan-7-yl)methyl)-1-ethyl-1,2,3,4-tetrahydroisoquinoline-2-carbonyl)-4,4-dimethylpent-2-enenitrile], the DC50 under setting [1] was below 0.00125 µM. Under setting [2], the Dmax is above 75%.

For the compound `COc1cc(-c2cn(C)c(=O)c(C)c2C)cc(OC)c1CN1CCC2(CC1)CCN(C(=O)/C(C#N)=C/c1cccc(Br)n1)CC2` [BRD9r, (E/Z)-3-(6-bromopyridin-2-yl)-2-(9-(2,6-dimethoxy-4-(1,4,5-trimethyl-6-oxo-1,6-dihydropyridin-3-yl)benzyl)-3,9-diazaspiro[5.5]undecane-3-carbonyl)acrylonitrile], the Dmax under setting [3] is above 70%. Moreover, the DC50 under setting [4] was above 0.2 µM.

`COc1cc(-c2cn(C)c(=O)c(C)c2C)cc(OC)c1CN1CCN(Cc2cccc3c2CCN(C(=O)/C(C#N)=C/C(C)(C)C)C3C)[C@H](C)C1` (mixture of isomers) [Compound B119, (E/Z)-2-(5-(((R)-4-(2,6-dimethoxy-4-(1,4,5-trimethyl-6-oxo-1,6-dihydropyridin-3-yl)benzyl)-2-methylpiperazin-1-yl)methyl)-1-methyl-1,2,3,4-tetrahydroisoquinoline-2-carbonyl)-4,4-dimethylpent-2-enenitrile]: the 50% degradation concentration (DC50) under setting [1] is 0.01 to 0.025 µM. Further, under setting [2], the Dmax lay within 40 to 70%.

For the compound `COc1cc(-c2cn(C)c(=O)c(C)c2C)cc(OC)c1CN1C[C@H](C)N(Cc2cccc3c2CCN(C(=O)/C(C#N)=C/C(C)(C)C)C3C)C[C@@H]1C` (mixture of isomers) [Compound B121, (E/Z)-2-(5-(((2S,5S)-4-(2,6-dimethoxy-4-(1,4,5-trimethyl-6-oxo-1,6-dihydropyridin-3-yl)benzyl)-2,5-dimethylpiperazin-1-yl)methyl)-1-methyl-1,2,3,4-tetrahydroisoquinoline-2-carbonyl)-4,4-dimethylpent-2-enenitrile], under setting [1], the DC50 lay in the range of 0.025 to 1 µM. Besides, the Dmax under setting [2] was 40 to 70%.

In the case of `COc1cc(-c2cn(C)c(=O)c(C)c2C)cc(OC)c1CN1CCN(Cc2cccc3c2CCN(C(=O)/C(C#N)=C/C2CCOC2)C3C)C2(CC2)C1` (mixture of isomers) [Compound B173, (E/Z)-2-(5-((7-(2,6-dimethoxy-4-(1,4,5-trimethyl-6-oxo-1,6-dihydropyridin-3-yl)benzyl)-4,7-diazaspiro[2.5]octan-4-yl)methyl)-1-methyl-1,2,3,4-tetrahydroisoquinoline-2-carbonyl)-3-(tetrahydrofuran-3-yl)acrylonitril], the Dmax result (Assay protocol 2) is reported as “+++ (+++ = ≥75%)”. Moreover, the DC50 under setting [1] was below 0.00125 µM.

For the compound `COc1cc(-c2cn(C)c(=O)c(C)c2C)ccc1OC1CCN(Cc2cccc3c2CCN(C(=O)/C(C#N)=C/C(C)(C)C)[C@H]3C)CC1` (single isomer, unassigned) [Compound C31, (E/Z)-2-(5-((4-(2-methoxy-4-(1,4,5-trimethyl-6-oxo-1,6-dihydropyridin-3-yl)phenoxy)piperidin-1-yl)methyl)-1-methyl-1,2,3,4-tetrahydroisoquinoline-2-carbonyl)-4,4-dimethylpent-2-enenitrile], the DC50 under setting [1] lay in the range of 0.00125 to 0.01 µM. Besides, the greatest degradation seen (Dmax) under setting [2] is above 75%.

`CC[C@@H]1c2cccc(CN3CCN(Cc4c(OC)cc(-c5cn(C)c(=O)c(C)c5C)cc4OC)C4(CC4)C3)c2CCN1C(=O)/C(C#N)=C/C(C)(C)CF` (single isomer, unassigned) [Compound C105, (E/Z)-2-(5-((4-(2,6-dimethoxy-4-(1,4,5-trimethyl-6-oxo-1,6-dihydropyridin-3-yl)benzyl)-4,7-diazaspiro[2.5]octan-7-yl)methyl)-1-ethyl-1,2,3,4-tetrahydroisoquinoline-2-carbonyl)-6-fluoro-4,4-dimethylpent-2-enenitrile]: the half-maximal degradation concentration (DC50) under setting [1] was below 0.00125 µM. In addition, under setting [2], the Dmax was above 75%.

For the compound `COc1cc(-c2cn(C)c(=O)c(C)c2C)cc(OC)c1C(=O)N1CCCN(C(=O)/C(C#N)=C/C(C)(C)C)CC1` [BRD9v, (E/Z)-2-(4-(2,6-dimethoxy-4-(1,4,5-trimethyl-6-oxo-1,6-dihydropyridin-3-yl)benzoyl)-1,4-diazepane-1-carbonyl)-4,4-dimethylpent-2-enenitrile], the Dmax under setting [3] lay within 50 to 70%. Under setting [4], the DC50 was below 0.025 µM.

Take `COc1cc(-c2cn(C)c(=O)c(C)c2C)cc(OC)c1CN1CCN(Cc2cccc3c2CCN(C(=O)/C(C#N)=C/c2cccc(Br)n2)C3C)C(C(C)C)C1` (mixture of isomers) [Compound B131, (E/Z)-3-(6-bromopyridin-2-yl)-2-(5-((4-(2,6-dimethoxy-4-(1,4,5-trimethyl-6-oxo-1,6-dihydropyridin-3-yl)benzyl)-2-isopropylpiperazin-1-yl)methyl)-1-methyl-1,2,3,4-tetrahydroisoquinoline-2-carbonyl)acrylonitrile]: the DC50 under setting [1] lay in the range of 0.00125 to 0.01 µM. For the same compound, the Dmax under setting [2] is above 75%.

With `COc1cc(-c2cn(C)c(=O)c(C)c2C)cc(OC)c1CN1CCN(C(=O)c2cccc3c2CCN(C(=O)/C(C#N)=C/C(C)(C)C)C3C)C2(CC2)C1` (mixture of isomers) [Compound C43, (E/Z)-2-(5-(7-(2,6-dimethoxy-4-(1,4,5-trimethyl-6-oxo-1,6-dihydropyridin-3-yl)benzyl)-4,7-diazaspiro[2.5]octane-4-carbonyl)-1-methyl-1,2,3,4-tetrahydroisoquinoline-2-carbonyl)-4,4-dimethylpent-2-enenitrile], the DC50 under setting [1] was 0.025 to 1 µM. The Dmax under setting [2] is above 75%.

`COc1cc(-c2cn(C)c(=O)c(C)c2C)cc(OC)c1CN1CCN(Cc2cccc3c2CCN(C(=O)/C(C#N)=C/c2cccc(Br)n2)C3C)C(C)(C)C1` (mixture of isomers) [Compound B109, (E/Z)-3-(6-bromopyridin-2-yl)-2-(5-((4-(2,6-dimethoxy-4-(1,4,5-trimethyl-6-oxo-1,6-dihydropyridin-3-yl)benzyl)-2,2-dimethylpiperazin-1-yl)methyl)-1-methyl-1,2,3,4-tetrahydroisoquinoline-2-carbonyl)acrylonitrile]: the DC50 under setting [1] lay in the range of 0.00125 to 0.01 µM. Further, the Dmax under setting [2] was above 75%.

With `COc1cc(-c2cn(C)c(=O)c(C)c2C)cc(OC)c1CN1CCCN(Cc2cccc3c2CCN(C(=O)/C(C#N)=C/C(C)(C)C)[C@@H]3C)CC1` (single isomer, unassigned) [Compound B192, (E/Z)-2-(5-((4-(2,6-dimethoxy-4-(1,4,5-trimethyl-6-oxo-1,6-dihydropyridin-3-yl)benzyl)-1,4-diazepan-1-yl)methyl)-1-methyl-1,2,3,4-tetrahydroisoquinoline-2-carbonyl)-4,4-dimethylpent-2-enenitrile], the DC50 under setting [1] was 0.00125 to 0.01 µM. The Dmax under setting [2] is above 75%.

On to `COc1cc(-c2cn(C)c(=O)c(C)c2C)ccc1OC1CCN(Cc2cccc3c2CCN(C(=O)/C(C#N)=C\C(C)(C)C)C3C)C(C)(C)C1` (stereo not shown) [Compound C58], for which the DC50 under setting [1] was in the range of 0.01 to 0.025 µM. The Dmax under setting [2] was above 75%.

`COc1cc(-c2cn(C)c(=O)c(C)c2C)cc(OC)c1CN1CCCN(Cc2ccc3c(c2)[C@@H](C)N(C(=O)/C(C#N)=C/C(C)(C)C)CC3)CC1` (single isomer, unassigned) [Compound C107]: the DC50 under setting [1] was 0.01 to 0.025 µM. The Dmax under setting [2] fell in the range of 40 to 70%.

For `COc1cc(-c2cn(C)c(=O)c(C)c2C)cc(OC)c1CN1CCN(Cc2ccc3c(c2)[C@@H](C)N(C(=O)/C(C#N)=C/C(C)(C)CF)CC3)CC12CC2` (single isomer, unassigned) [Compound C34], under setting [1], the DC50 lay in the range of 0.025 to 1 µM. The Dmax under setting [2] was in the range of 40 to 70%.

As to `COc1cc(-c2cn(C)c(=O)c(C)c2C)cc(OC)c1CN1CCN(Cc2ccc3c(c2)[C@@H](C)N(C(=O)/C(C#N)=C/C2(OC)CC2)CC3)C2(CC2)C1` (single isomer, unassigned) [Compound C37, (E/Z)-2-(7-((7-(2,6-dimethoxy-4-(1,4,5-trimethyl-6-oxo-1,6-dihydropyridin-3-yl)benzyl)-4,7-diazaspiro[2.5]octan-4-yl)methyl)-1-methyl-1,2,3,4-tetrahydroisoquinoline-2-carbonyl)-3-(1-methoxycyclopropyl)acrylonitrile], under setting [1], the DC50 was below 0.00125 µM. Under setting [2], the Dmax is above 75%.

As to `COc1cc(-c2cn(C)c(=O)c(C)c2C)ccc1O[C@H]1CC[C@@H](Nc2cccc3c2CCN(C(=O)/C(C#N)=C/C(C)(C)C)C3C)CC1` (stereo partly shown) [Compound C56], the 50% degradation concentration (DC50) under setting [1] lay within 0.025 to 1 µM. Besides, the Dmax under setting [2] was above 75%.
